The values below come from US8110570B2, “Modulators of acetyl-coenzyme A carboxylase and methods of use thereof” (Cropsolution, Inc., priority 2008, dated 2012).

Each structure is given as a SMILES string.

For test [1], the target named is T1, hACC1-CT (Homo sapiens, UniProt Q13085).
T1 construct: PCR primers were designed for full-length hACC1 and hACC2 using GenBank submissions AY237919 and AJ575592, respectively; His tag (C); made in house; host or cells: baculovirus, Sf9 insect cells
The test is described as follows: acetyl-CoA/malonyl-CoA isotope exchange assay, CT half-reaction. It is filed as biochemical. As to the method: Overall ACC activity is comprised of two half-reactions, the BC reaction (the ATP-dependent carboxylation of biotin) and the CT reaction (the transfer of the carboxyl group from biotin to acetyl-CoA to form malonyl-CoA). Thus, it is of interest to localize the site of action of ACC inhibitors. To this end, representative compounds are tested in an acetyl-CoA/malonyl-CoA isotope exchange reaction which specifically measures the CT-half reaction. This assay is performed with slight modifications of published procedures (Gregolin et al., J Biol Chem, 1968, 243:4227-4235; Rendina et al., J Agric Food Chem, 1990, 38:1282-1287). Briefly, the reaction mixture (50 μL) contained 50 mM Hepes (pH 7.4), 20 mM K-citrate, 1.5 mM MgSO4, 4 mM malonyl-CoA, 1.67 mM acetyl-CoA, 0.34 mM [^14C]acetyl-CoA (about 60 mCi/mmol), 0.75 mg/mL BSA, and 1% (v/v) DMSO with or without inhibitor. Reactions are initiated by the addition of hACCl (0.3 μg) or hACC2 (0.15 μg) enzyme and incubated at 37° C. for 10 min. Reactions are stopped by addition of a 0.2M sodium arsenate solution containing 1U of phosphotransacetylase (13.5 μL) and incubation at room temperature for 30 min. […] The samples are then resuspended in water (200 μL), added to scintillation cocktail (3 mL), and counted in a scintillation counter to quantify radiolabel incorporated into malonyl-CoA. […]

The target in test [2] is T2, hACC1 (Homo sapiens, UniProt Q13085).
T2 construct: PCR primers were designed for full-length hACC1 and hACC2 using GenBank submissions AY237919 and AJ575592, respectively; His tag (C); made in house; host or cells: baculovirus, Sf9 insect cells
The test is described as follows: [14C]bicarbonate incorporation assay, overall ACC activity. As to conditions: recombinant hACC1, overall ACC activity. It is filed as biochemical. The method, boiled down:
(§1)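 His-tagged full-length hACC1 or hACC2 (residues 1-148 deleted, Met-Gly added), expressed in sf9 cells with biotin and purified, were assayed by [14C]bicarbonate incorporation into acetyl-CoA. Reactions at pH 7.4 with 2 mM acetyl-CoA, 12 mM NaHCO3 and 1% DMSO were started with 2 mM ATP and run 10 min at 37° C. Acid-stable label was counted and IC50 obtained from dose-response fits.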

Test [3] deals with T3, hACC2 (Homo sapiens, UniProt O00763).
T3 construct: delete amino acids 1-148 and add Met-Gly in front of Lys149 in the final product; His tag (C); made in house; host or cells: baculovirus, Sf9 insect cells
The test is described as above. The test is classed as biochemical. As to conditions: recombinant hACC2, overall ACC activity. The essentials:
as §1

For test [4], the target named is uACC (Ustilago maydis ACC) (Ustilago maydis, UniProt A0A0D1DYD5). The description is as above. The test is classed as biochemical.
Test [5] relates to HepG2 cells. The test is described as follows: Fatty acid synthesis assay, 14C-acetate incorporation into phospholipids. The test is classed as cell-based. As to conditions: Homo sapiens, 24 h, read-out: inhibition of radiolabel incorporation into phospholipids. The text has this:
(§2) The in vivo ACC inhibitory activity of compounds in this invention can be confirmed in cultured cells using standard procedures that are well known to those skilled in the art. For example, since ACC catalyzes the first committed step in fatty acid biosynthesis, the in vivo activity of compounds can be confirmed by measuring their ability to prevent the formation of radiolabeled fatty acids from radiolabeled acetate in cultured human hepatoma cells (HepG2). In addition, since the malonyl-CoA produced by ACC inhibits fatty acid oxidation, the in vivo ACC inhibitory activity of compounds can be further confirmed by measuring the stimulation of fatty acid oxidation in cultured mouse myoblast cells (C2C12).
Fatty acid synthesis assays are performed with slight modifications to published procedures (Beckers et al., Cancer Res, 2007, 67: 8180-8187; Wang, J Lipid Res., 2006, 47:2028-41). Briefly, HepG2 cells are grown in Dulbecco's modified eagles medium containing 10% fetal calf serum in 6-well culture plates. Cells are treated for 24 h with test compounds added as DMSO stock solutions to a final DMSO concentration of 0.5% (v/v). After test compound incubation, ^14C—[2]-acetate is added (3 μCi/6 well plate) and cells are further incubated for 4 hrs. Cells are then harvested in 40% methanol and assayed for total protein. Total lipids are extracted with chloroform:methanol (2:1) and ^14C-radioactivity is quantified in the aqueous and organic phases. Total lipids in the organic phase are separated by thin-layer chromatography (TLC, silica gel 60A) using hexane:ether:acetic acid (90:30:1) as the mobile phase. Radioactivity distribution of lipid classes on TLC plates is quantified by phosphorimaging (Molecular Dynamics Storm 820). Compound 6 inhibited radiolabel incorporation into phospholipids 32% and 14% at 10 μM and 1 μM, respectively, while Compound 2 inhibited radiolabel incorporation into phospholipids 93% and 42% at 10 μM and 1 μM, respectively.

Test [6] concerns C2C12 cells. The test is described as follows: Fatty acid oxidation assay, [1-14C]palmitate to CO2. It is filed as cell-based, mouse. As to conditions: compared to untreated controls.
From the text: as §2
Fatty acid oxidation assays are performed essentially as described (Beckers et al., Cancer Res, 2007, 67: 8180-8187). Briefly, C2C12 cells are plated at 600,000 cells/T25 flask. The next day, media is changed and the DMSO with or without test compound is added to a final concentration of 0.5% (v/v). After 1 h at 37° C. in atmosphere of 5% CO2, freshly made 2 uCi of FA-free bovine serum albumin-[1-^14C] palmitate complex is added to each flask. The flasks are then sealed with a stopper and incubated 6 h at 37° C. after which evolved CO2 is liberated by injection of perchloric acid to final concentration of 5% and captured by incubating the flasks overnight in the presence of filter paper soaked with 5% KOH. The filters are then air-dried and incubated with scintillation cocktail overnight for equilibrium. Radioactivity is quantified by scintillation counting.

Chain of uACC (Ustilago maydis ACC) (A0A0D1DYD5 entry or part of it): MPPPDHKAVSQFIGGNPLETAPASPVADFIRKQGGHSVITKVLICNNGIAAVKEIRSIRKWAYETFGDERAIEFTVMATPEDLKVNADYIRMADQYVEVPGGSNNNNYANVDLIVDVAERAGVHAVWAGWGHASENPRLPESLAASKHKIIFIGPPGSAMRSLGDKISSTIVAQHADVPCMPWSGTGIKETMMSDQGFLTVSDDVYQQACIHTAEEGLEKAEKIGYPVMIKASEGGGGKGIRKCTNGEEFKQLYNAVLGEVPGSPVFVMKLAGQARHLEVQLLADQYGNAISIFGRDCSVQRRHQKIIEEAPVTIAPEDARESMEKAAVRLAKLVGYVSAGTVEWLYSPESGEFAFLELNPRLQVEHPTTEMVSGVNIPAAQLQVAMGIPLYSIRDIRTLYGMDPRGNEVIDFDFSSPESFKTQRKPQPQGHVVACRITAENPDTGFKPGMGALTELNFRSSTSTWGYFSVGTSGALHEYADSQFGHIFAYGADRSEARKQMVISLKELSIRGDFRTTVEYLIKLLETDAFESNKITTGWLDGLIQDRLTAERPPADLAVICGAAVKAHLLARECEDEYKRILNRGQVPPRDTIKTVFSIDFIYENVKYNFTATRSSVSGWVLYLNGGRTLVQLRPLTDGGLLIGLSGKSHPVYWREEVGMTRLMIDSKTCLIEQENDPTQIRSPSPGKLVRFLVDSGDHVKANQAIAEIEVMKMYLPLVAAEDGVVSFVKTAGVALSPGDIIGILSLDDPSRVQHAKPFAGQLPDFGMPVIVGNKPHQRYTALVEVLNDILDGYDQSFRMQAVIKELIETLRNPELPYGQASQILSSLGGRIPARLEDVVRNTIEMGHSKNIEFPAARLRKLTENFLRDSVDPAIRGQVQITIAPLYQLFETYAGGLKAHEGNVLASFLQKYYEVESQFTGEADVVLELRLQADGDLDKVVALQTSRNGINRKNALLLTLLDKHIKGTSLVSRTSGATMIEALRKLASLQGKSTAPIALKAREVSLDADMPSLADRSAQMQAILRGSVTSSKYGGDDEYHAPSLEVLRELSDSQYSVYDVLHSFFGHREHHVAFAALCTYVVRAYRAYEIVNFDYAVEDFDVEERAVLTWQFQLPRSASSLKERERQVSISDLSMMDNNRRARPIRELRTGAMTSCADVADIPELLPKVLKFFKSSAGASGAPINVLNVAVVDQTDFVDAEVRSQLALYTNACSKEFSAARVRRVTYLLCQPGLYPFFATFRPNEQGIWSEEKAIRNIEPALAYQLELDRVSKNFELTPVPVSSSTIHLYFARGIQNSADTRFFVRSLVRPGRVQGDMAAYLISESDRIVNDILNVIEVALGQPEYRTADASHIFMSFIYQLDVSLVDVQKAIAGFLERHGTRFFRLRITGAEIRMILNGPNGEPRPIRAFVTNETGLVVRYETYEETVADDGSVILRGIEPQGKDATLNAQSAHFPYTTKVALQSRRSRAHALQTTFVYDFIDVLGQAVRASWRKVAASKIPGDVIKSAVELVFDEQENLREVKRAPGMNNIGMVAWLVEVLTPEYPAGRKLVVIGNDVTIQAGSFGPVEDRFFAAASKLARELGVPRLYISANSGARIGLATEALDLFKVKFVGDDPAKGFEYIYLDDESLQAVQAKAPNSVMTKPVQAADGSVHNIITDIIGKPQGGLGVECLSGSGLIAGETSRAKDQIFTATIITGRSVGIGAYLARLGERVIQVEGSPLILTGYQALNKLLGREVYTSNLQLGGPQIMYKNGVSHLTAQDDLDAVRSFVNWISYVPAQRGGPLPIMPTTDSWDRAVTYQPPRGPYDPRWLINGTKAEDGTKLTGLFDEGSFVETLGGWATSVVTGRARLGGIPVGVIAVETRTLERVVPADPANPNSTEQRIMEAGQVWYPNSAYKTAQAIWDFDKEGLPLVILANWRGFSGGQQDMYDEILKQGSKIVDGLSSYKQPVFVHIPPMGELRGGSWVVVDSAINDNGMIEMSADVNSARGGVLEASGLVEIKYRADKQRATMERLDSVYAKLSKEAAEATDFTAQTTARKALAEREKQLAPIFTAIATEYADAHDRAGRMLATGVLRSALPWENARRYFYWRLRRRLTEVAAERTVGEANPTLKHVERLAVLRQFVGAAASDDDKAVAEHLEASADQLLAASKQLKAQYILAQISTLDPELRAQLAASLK
T3 sequence (O00763 149-2458 limits assumed): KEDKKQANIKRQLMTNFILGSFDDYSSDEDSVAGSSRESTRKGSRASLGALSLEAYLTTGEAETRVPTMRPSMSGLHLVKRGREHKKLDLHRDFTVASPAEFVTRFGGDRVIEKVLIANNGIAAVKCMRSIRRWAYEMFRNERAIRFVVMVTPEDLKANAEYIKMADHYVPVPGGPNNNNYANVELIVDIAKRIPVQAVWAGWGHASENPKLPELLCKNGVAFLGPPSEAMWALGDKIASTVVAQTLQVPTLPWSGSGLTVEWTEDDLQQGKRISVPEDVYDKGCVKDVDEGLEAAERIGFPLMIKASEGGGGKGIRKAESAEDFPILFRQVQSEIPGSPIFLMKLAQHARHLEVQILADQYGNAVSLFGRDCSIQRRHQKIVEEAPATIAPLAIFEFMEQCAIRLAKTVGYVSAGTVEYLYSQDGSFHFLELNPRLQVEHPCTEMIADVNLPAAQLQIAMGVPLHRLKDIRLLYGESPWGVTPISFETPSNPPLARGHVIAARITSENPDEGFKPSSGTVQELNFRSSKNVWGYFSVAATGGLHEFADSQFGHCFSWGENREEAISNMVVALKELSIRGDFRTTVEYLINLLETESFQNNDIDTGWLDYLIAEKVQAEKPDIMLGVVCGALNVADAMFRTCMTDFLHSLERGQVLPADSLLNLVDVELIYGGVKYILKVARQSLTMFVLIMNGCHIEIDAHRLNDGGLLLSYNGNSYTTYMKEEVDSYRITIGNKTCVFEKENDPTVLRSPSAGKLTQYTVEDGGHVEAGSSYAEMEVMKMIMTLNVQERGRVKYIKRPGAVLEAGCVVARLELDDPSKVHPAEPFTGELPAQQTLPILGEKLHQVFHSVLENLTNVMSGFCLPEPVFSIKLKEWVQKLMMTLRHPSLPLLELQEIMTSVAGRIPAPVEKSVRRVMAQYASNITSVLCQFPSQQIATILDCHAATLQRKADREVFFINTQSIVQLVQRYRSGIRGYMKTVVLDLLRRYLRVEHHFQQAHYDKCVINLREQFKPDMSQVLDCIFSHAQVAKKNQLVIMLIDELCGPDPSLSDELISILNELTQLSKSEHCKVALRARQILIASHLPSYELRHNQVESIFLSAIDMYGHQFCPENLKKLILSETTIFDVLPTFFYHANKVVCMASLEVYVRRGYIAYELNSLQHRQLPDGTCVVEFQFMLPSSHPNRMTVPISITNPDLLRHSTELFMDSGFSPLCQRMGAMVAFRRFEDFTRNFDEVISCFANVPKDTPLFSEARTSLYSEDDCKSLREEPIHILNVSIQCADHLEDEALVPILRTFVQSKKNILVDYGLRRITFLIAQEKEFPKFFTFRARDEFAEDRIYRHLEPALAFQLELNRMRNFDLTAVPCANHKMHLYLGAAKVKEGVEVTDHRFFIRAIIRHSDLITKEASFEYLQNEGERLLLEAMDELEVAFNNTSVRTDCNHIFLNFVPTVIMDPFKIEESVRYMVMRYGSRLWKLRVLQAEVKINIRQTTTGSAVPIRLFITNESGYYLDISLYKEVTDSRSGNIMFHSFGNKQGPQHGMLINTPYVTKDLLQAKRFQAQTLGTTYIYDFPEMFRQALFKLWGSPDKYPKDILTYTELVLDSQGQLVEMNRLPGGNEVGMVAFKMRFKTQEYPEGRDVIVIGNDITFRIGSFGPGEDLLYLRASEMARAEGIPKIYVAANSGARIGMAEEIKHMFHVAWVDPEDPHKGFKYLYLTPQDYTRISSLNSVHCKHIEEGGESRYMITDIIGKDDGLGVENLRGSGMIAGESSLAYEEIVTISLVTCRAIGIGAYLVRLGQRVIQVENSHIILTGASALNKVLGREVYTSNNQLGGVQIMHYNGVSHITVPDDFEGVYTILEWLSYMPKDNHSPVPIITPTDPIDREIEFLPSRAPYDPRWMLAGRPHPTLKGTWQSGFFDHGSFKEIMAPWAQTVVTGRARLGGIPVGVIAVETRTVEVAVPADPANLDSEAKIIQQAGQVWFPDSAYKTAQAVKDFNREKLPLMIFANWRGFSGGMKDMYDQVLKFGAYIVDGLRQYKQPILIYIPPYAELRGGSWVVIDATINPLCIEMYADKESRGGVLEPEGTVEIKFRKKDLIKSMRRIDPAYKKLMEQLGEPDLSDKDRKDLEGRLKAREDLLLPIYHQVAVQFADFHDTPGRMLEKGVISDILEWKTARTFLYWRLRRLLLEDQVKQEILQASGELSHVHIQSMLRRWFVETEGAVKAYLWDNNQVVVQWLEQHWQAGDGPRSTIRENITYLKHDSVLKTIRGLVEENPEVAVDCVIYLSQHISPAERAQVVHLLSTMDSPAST

For orientation: IC50 means the midpoint of a concentration-inhibition curve. For `COc1ccc(OC)c2[nH]c(C(=O)N3CCC4(CC3)NC(=O)c3ccccc3O4)cc12` [Compound 7, 1′-[(4,7-Dimethoxy-1H-indol-2-yl)carbonyl]spiro[2H-1,3-benzoxazin-2,4′-piperidin]-4-(3H)-one], the IC50 in test [1] was 1.2 µM; in test [2] it was 1.1 µM; in test [3] it was 0.85 µM; in test [4], 20 µM.
Consider `Cc1c(C(=O)N2CCC3(CC2)NC(=O)c2ccccc2O3)[nH]c2ccc(F)cc12` [Compound 6, 1′-[(5-Fluoro-3-methyl-1H-indol-2-yl)carbonyl]spiro[2H-1,3-benzoxazin-2,4′-piperidin]-4-(3H)-one], for which the IC50 in test [2] was determined as 2.3 µM; in test [3] it was 2 µM; in test [4], 40 µM. Also, in test [5] (HepG2, 1 μM), the inhibition at 1 µM came to 14%. Also, the inhibition at 10 µM in test [5] (HepG2, 10 μM) is 32%. Besides, the “stimulation of fatty acid oxidation” value in test [6] (C2C12, 0.2 μM) is on record as 260%; in test [6] (C2C12, 2 μM), 299%.
